# Data: patent publication US4657924A, “Nafazatrom as a lipoxygenase inhibitor” (priority 1983, dated 1987)
# Tests used:
# [1] = test system: cardiac infarction following ligation of the left coronary artery; test: Coronary artery ligation in rats: cardiac infarction size and total mortality; format: in vivo, rat (Wistar); settings: for Total mortality % / Infarction size, % of total heart: peroral; for reduction of infarction size: treatment after coronary ligature
# Text: Ligation of the left coronary artery of the rat heart and the disorders in cardiac rhythm which thereby occur form a relatively simple model for investigating substances having antiarrhythmic actions and effects on the developing myocardial ischaemia (Clark et al., J. Pharmacol. Meth. 3, 357, 1980). The effects of nafazatrom on antiarrhythmic and antiischaemic properties in conscious rats was investigated in this model. Particular importance was placed on the severity and quantity of disorders in cardiac rhythm which occurred.
# Male Wistar rats (250-350 g) were superficially anaesthetized with ether and investigated for rhythm disorders. Animals with rhythm abnormalities before the start of the experiment were excluded. In acute surgery, the animals were again anaesthetized with ether. In the lateral dorsal position, the thorax was opened somewhat to the left alongside the central line and the heart was exteriorized. Close below the left heart auricle, a silk ligature (3-0) was looped through the muscle of the left heart under the anterior coronary artery. Animals which developed rhythm disorders during this procedure were excluded. The left coronary artery was ligatured by the method described by Selye et al. (Angiology 11, 398, 1960), the heart was returned to the thorax and the wound was rapidly closed with thread. Since the thorax had not been opened for longer than about 45 seconds, artificial respiration of the animals was unnecessary. The operation mortality was between 25 and 40% within the first hours, and in particular myocardial haemorrhages, rhythm disorders with ventricular fibrillation, and massive cardiac infractions occurred. In a sham-operatedgroup, the same experimental conditions were investigated, with the exception that the coronary artery remained open. Shortly after the ligature had been made, early rhythm disorders were observed, which were accompanied in some cases (untreated) with ventricular fibrillations. In most cases, this ventricular fibrillation spontaneously turned into uniform sinus rhythm of heart contraction. The disorders in cardiac rhythm were evaluated by the plan described by Clark (see above). Ventricular tachycardia was defined as the result of more than 10 successive rhythm disorders with extrasystoles. Electrocardiographic changes included a rise in the ST segment, a drop in the Q waves and a rise in the QT interval. The total number of ectopic activity in each individual animal was determined by counting the ventricular extrasystoles, including tachycardia and fibrillations.
# Three groups were investigated: group I received the diluent (1% strength aqueous Tylose suspension, that is to say methylhydroxyethyl-cellulose) twice daily perorally (0.5 ml/kg) for 10 days and by the same administration and in the same amount, after coronary ligature, for a further 20 days; group II was pretreated with the diluent for 10 days (0.5 ml/kg) and was treated with 30 or 100 mg/kg of nafazatrom (in each case suspended in 0.5 ml/kg of 1% strength Tylose suspension) twice daily perorally for 20 days, after coronary ligature (the first nafazatrom administration was effected immediately after the coronary ligature); group III received the above oral doses of nafazatrom in the course of 10 days before the ligature, and the diluent Tylose suspension for 10 days after the coronary occlusion had been effected. The sham-operated animals remained untreated. The peripheral ECG in the extremities was determined in lead II, and in particular, as a control before the start of treatment, shortly before and during coronary ligature, 10 minutes after coronary ligature had been effected, and--after renewed ether anaesthesia-- between the 2nd and 4th hour after coronary occlusion. Each time, the animals were superficially anaesthetized again with ether when the ECG was recorded. At the end of the treatment period, a last ECG was recorded shortly before the animals were sacrificed. […]
# [2] = test system: Lipoxygenase (leukotriene B4 biosynthesis in human PMN leucocytes); test: Lipoxygenase inhibition: inhibition of leukotriene B4 biosynthesis in human PMN leucocytes; format: cell-based
# Method: The human PMN leucocytes (95%) used in the present example were obtained from heparinized complete blood by dextran sedimentation and subsequent density gradient separation (Ficoll-Paque) (compare A. Boyum, Scand. J. Immunol., 5, Suppl. 5, 9, 1976).
# 2×10^7 cells/ml were suspended in Dulbecco phosphate buffer containing Ca^2+ and were incubated with radioactively labelled arachidonic acid and the calcium ionophor A 23187 in the presence or absence of lipoxygenase inhibitor. After 15 minutes, the labelled lipoxygenase products were extracted from the acidified incubation medium and were separated by thin layer chromatography using a mobile phase mixture suitable for the leukotrienes (5-HETE-LTB4) (compare B. Jakschik et al., Biochem.Biophys.Res.Commun., 102, 624, 1981).
# The distribution of the activity amongst the various metabolites was measured by a thin layer scanner. It is a measure of the lipoxygenase-inhibiting action of a test substance at a certain concentration.
# The lipoxygenase metabolites were also additionally determined independently by means of high pressure liquid chromatography. This method enables the endogenous arachidonic acid metabolism to be studied with the aid of UV detection of the leukotrienes. In this method, the cells were treated as described above, with the exception that no radioactively labelled arachidonic acid was added exogenously. The high pressure liquid chromatography was carried out on Lichrosorb RP-18 (5 μm) columns. The mobile phase was methanol/water/glacial acetic acid 69/31/0.01. The flow rate was 1 ml/minute. Leukotriene B4 was determined at 232 nm, in each case by means of UV absorption.
# [3] = test system: coronary arteries of dogs; settings: cited from earlier work
# [4] = test system: ischaemia-induced ECG changes; test: Animal experiments: ECG changes in ischaemia; format: in vivo
# [5] = test system: 15-hydroxyprostaglandin dehydrogenase; settings: Wong and McGiff, 1982; cited from earlier work
# [6] = test system: leucocytes; test: Leucocyte stickiness in hamster cheek pouch venules; format: in vivo, Syrian golden hamster; settings: intraarterial, 1.0 mg/kg
# Method: The number of leucocytes counted will be greater, the lower the stickiness of the cells. Male Syrian golden hamsters (80-100 g) were anaesthetized with Nembutal (i.p.; 60 mg/kg). After insertion of a PE 10 catheter into the a.femoralis, the animal was laid on a Duling dissecting platform (MVR 5, 423 (1973)) and the right check pouch was withdrawn by inserting a Q-Tip. It was carefully drawn into the envisaged part of the platform, stretched and fixed. From the start of the dissection, 5 ml/minute of Superfusat flowed over the prepared cheek pouch. The temperature of the solution is 36° C. While treating the vessels with care, the upper layer tissue was separated longitudinally and folded back to the side. Under about 200-fold magnification, an area of about 1 cm^2 of connective tissue was carefully exposed. The animal was placed on the object stand of a microscope, together with the dissecting platform. A thermocouple was inserted into the left cheek pouch. The body temperature of the animal was thus monitored and kept at ±0.3° C. with the aid of an IR lamp (250 watt). The leucocyte stickiness was measured at about 500-fold magnification. A venule (30-40 μm .phi.) was selected in the exposed area. The number of leucocytes per unit time (minutes) which migrate past a certain section of this vessel was counted.
# [7] = test system: guinea pig lung; test: Inhibition of methacholine-induced bronchoconstriction in perfused guinea pig lung; settings: 10^-4 g/ml; 0.05 μg/ml of methacholine
# Method: Nafazatrom can moreover be used for the therapy of pulmonary hypertension, pulmonary embolisms and pulmonary oedemas. […] In this organ, nafazatrom inhibits (by the method of F. P. Luduena et al., Arch. Int. Pharmacodyn. 111, 392, 1957) methacholine-induced bronchoconstriction (see Example 5).
# The guinea pig lung was perfused with a physiological buffer solution (Tyrode's solution) containing 0.05 μg/ml of methacholine.
smiles,measurement,setting,value
"CC1=NN(CCOc2ccc3ccccc3c2)C(=O)C1 [nafazatrom, 3-methyl-1-[2-(2-naphthyloxy)-ethyl]-2-pyrazolin-5-one]",total mortality,[1]; after-treated with 30 mg/kg,22%
same,total mortality,[1]; after-treated with 100 mg/kg,12%
same,infarctions in comparison with the control animals treated only with Tylose,[1]; both groups (before or after coronary ligature),significantly smaller
same,Total mortality %,"[1]; group II, after-treatment 30 mg/kg, 2 × daily, 20 days",24%
same,"Infarction size, % of total heart","[1]; group II, after-treatment 30 mg/kg, 2 × daily, 20 days, 15 animals",31.5%
same,Total mortality %,"[1]; group II, after-treatment 100 mg/kg, 2 × daily, 20 days",22%
same,"Infarction size, % of total heart","[1]; group II, after-treatment 100 mg/kg, 2 × daily, 20 days, 18 animals",26.7%
same,Total mortality %,"[1]; group III, pre-treatment 30 mg/kg, 10 days",22%
same,"Infarction size, % of total heart","[1]; group III, pre-treatment 30 mg/kg, 10 days, 12 animals",28.0%
same,Total mortality %,"[1]; group III, pre-treatment 100 mg/kg, 10 days",12%
same,"Infarction size, % of total heart","[1]; group III, pre-treatment 100 mg/kg, 10 days, 16 animals",22.7%
same,reduction of infarction,[1]; pre-treatment 30 mg/kg,36%
same,reduction of infarction,[1]; pre-treatment 100 mg/kg,48%
same,reduction of infarction size,[1]; 30 mg/kg,28%
same,reduction of infarction size,[1]; 100 mg/kg,39%
same,inhibition at 1 µg/mL,"[2]; Homo sapiens, Leucocyte, 1 ug/ml, read-out: Inhibition in % in comparison with the control (leukotriene B4 biosynthesis)",30%
same,inhibition at 3 µg/mL,"[2]; Homo sapiens, Leucocyte, 3 ug/ml, read-out: Inhibition in % in comparison with the control (leukotriene B4 biosynthesis)",75%
same,inhibition at 5 µg/mL,"[2]; Homo sapiens, Leucocyte, 5 ug/ml, read-out: Inhibition in % in comparison with the control (leukotriene B4 biosynthesis)",90%
same,inhibition at 10 µg/mL,"[2]; Homo sapiens, Leucocyte, 10 ug/ml, read-out: Inhibition in % in comparison with the control (leukotriene B4 biosynthesis)",100%
same,concentration range of inhibition of LTB4 biosynthesis,[2]; as a function of the concentration,1 to 10 µg/mL
same,antithrombotic effectiveness,[3],also effective in the coronary arteries of dogs
same,R-wave in the ECG of the peripheral extremities,[4]; in vivo,increases less sharply and re-forms more rapidly
same,ST intervals compared with the controls,[4]; in vivo,changed less than in the controls
same,ischaemia-induced rise in the ST zone,[4]; indication of infarction,reduces the ischaemia-induced rise in the ST zone
same,blocking of 15-hydroxyprostaglandin dehydrogenase,[5],blocks 15-hydroxyprostaglandin dehydrogenase
same,duration of action,[6],about 60 minutes
same,increase in the number of leucocytes,[6],60-100%
same,"inhibition of the rise in perfusion pressure, and hence bronchoconstriction",[7],50%
